Measured values as given in US20140274785A1, “BIOMARKERS” (priority 2013, published 2014).
Entries after “also recorded” stand apart in the source; their conditions may differ.

What was measured:
SOD1-G93A TGN mice = assay: Onset of symptoms (stride length/gait analysis) and death in SOD1-G93A TGN mice, treatment started presymptomatic (7 weeks); type: in vivo, mouse; conditions: for Onset of motor deficits: vehicle 20% cyclodextran 88-100 days; for Mortality: vehicle 20% cyclodextran 105-112 days
Experimental: The one and two-drug treatments were started at an early (i.e., presymptomatic) stage of disease (7 weeks). SOD1-G93A TGN mice were treated 3 times a week with noscapine (0.2 mg/kg body weight) and/or MK-801 (12 mg/kg body weight/day). Mice received noscapine intraperitoneally and MK-801 in drinking water.
Female SOD-1 G93A TGN mice were obtained from Jackson laboratory (strain #2726). The controls were matched litter mates. Treatment groups were three per group. Noscapine was injected intraperitoneal in the thigh 3 times/week (0.2 mg/kg i.p.) and MK801 was administered continuously in drinking water (12 mg/kg/d). Gait analysis was done by the method of Wooley et al., Muscle Nerve 2005 32(1):43-50 and Carter et al. J. Neurosci., 19(8):3248-3257, hereby incorporated by reference in their entirety.
For clinical assessment endpoints scoring was selected as follows:
Clinical signs: Full mobility and no observable difference in behavior from age-matched controls (Gait or stride length analysis).
Clinical signs: Abnormal Gait or stride length analysis and hindlimb weakness: >40% reduction in stride length vs. age-matched littermates.
Clinical signs: noticeable and complete hind limb paralysis (which in this strain occurs more on one limb than the other) and inability to right themselves in 5 sec time window. This stage starts usually as the mice are failing the gait analysis test and enter the End stage. Therefore, Transgenic SOD1-G93A TGN mice are euthanized at the onset of noticeable and complete hindlimb paralysis and inability to right themselves in 5 sec time window.

hyperdynamic MTs = assay: Microtubule turnover in MPTP-injected PD mouse model; type: in vivo; conditions: treatment from 7 days after last MPTP injection for 10 days; n=4
Experimental: FIGS. 28A-28B show an illustration of altered microtubule (MT) turnover in two preclinical models of Parkinson's disease (PD). (A) The acute MPTP intoxication PD model (8 wk old C57b1/6 mice were injected four times with 20 mg/kg on 1 day, at 2 h interval) show hyperdynamic tau-associated and cold-stable (CS) MTs in striatum and substantia nigra at 3 and 7 days after the last (fourth) MPTP injection (n=4 per group, males aged 8 weeks, mean±SD; *P<0.001). (B) In vivo MT dynamics was measured in substantia nigra and striatum at presymptomatic (4 and 10 months) and symptomatic (15 months) disease stage in transgenic alpha-synucleinA53T PD mice (−/−/SNCAA53T). […]
FIGS. 29A-29C show normalized microtubule (MT) turnover correlate with reverse of symptoms in the MPTP-injected PD mouse model after treatment with the MTMA noscapine. […] Neuromuscular strength was measured using the grip strength test (B) and the grid hang test (C). Grip strength test measured the tension peak of pull (gram of force) by the forepaws and it was performed 1 day before (day 0), 1, 2, 3, 4, 5, 7 and 17 days after the last (fourth) MPTP injection (n=10, males per each time point). The hang test was performed 17 days after the last (fourth) MPTP-injection and percentage of success was recorded as maximum time hanging/300 sec×100 (n=10, males per each time point).

[1] = system: fast axonal transport of 2H-labeled cargo proteins; assay: MT-mediated fast axonal transport: CSF secretion kinetics and spinal cord retention of 2H-labeled cargo proteins in symptomatic SOD1G93A mice; type: in vivo, mouse
MPTP-injected mice = assay: Neuromuscular strength (grip strength test, grid hang test) in MPTP-injected mice; type: in vivo, mouse; conditions: treatment from 7 days after last MPTP injection for 10 days; n=10
Experimental: Noscapine was administered at 7 days after the last MPTP-injection, treatment was for 10 days and a pulse of ^2H2O labeling was administered the last day of treatment (17 days after, fourth, MPTP injection). […] Neuromuscular strength was measured using the grip strength test (B) and the grid hang test (C). […] The hang test was performed 17 days after the last (fourth) MPTP-injection and percentage of success was recorded as maximum time hanging/300 sec×100 (n=10, males per each time point).

[2] = system: transport of neuronal cargo proteins; assay: CSF secretion kinetics of 2H-labeled cargo proteins in symptomatic PD MPTP-injected mice; type: in vivo, mouse
Experimental: Noscapine was administered 7 days after the last MPTP injection, treatment was for 10 days, and a pulse of ^2H2O labeling was administered on the last day of treatment (17 days after the fourth and final MPTP injection

Row | Structure (SMILES) | Onset of motor deficits (SOD1-G93A TGN mice) [days] | Mortality (SOD1-G93A TGN mice) [days] | hyperdynamic MTs (hyperdynamic MTs) | MT-mediated fast axonal transport rates of 2H-label neuregulin-1 and chromogranin-B containing synaptic vesicles ([1]; 3 weeks treatment, 100 mg/kg/d and 200 mg/kg/d, 13 weeks mice) | kinetic of 2H-alpha synuclein in CSF ([1]; symptomatic ALS SOD1G93A) | transport rates of 2H-Chr-B, 2H-NeuR-1 and 2H-sAPP in CSF ([1]; symptomatic ALS SOD1G93A, vs age-matched wild type, n=10 per time point) | symptoms (grip strength test, grid hang test) (MPTP-injected mice) | kinetics of 2H-NeuR-1 in CSF ([2]; symptomatic PD MPTP-injected mice) | kinetics of secretion of 2H-Chr-B, 2H-sAPP in CSF ([2]; treatment from 7 days after last MPTP injection for 10 days, n=10 per time point)
1 | C[C@]12N[C@H](Cc3ccccc31)c1ccccc12 [MK-801, Dizocilipine] | 105 to 112 | 112 to 119 |  |  |  |  |  |  | 
2 | COc1ccc2c(c1OC)C(=O)O[C@@H]2[C@H]1c2c(cc3c(c2OC)OCO3)CCN1C [Noscapine, noscapine] | 98 to 105 | 112 to 119 | reduced hyperdynamic MTs | normalized; also recorded: improves this delayed fast axonal transport | not adversely affected | normalized transport rates | reverses symptoms | not adversely affected | normalized the kinetics of secretion
